Test results published in US4068001A, “Method of medical treatment of pancreatic insufficiency” (priority 1976, dated 1978).

Experiments:
[1] = test system: mice of ICR-JCL strain; test: Acute toxicity test in mice (single high dose); format: in vivo, mouse (ICR-JCL strain)
From the text: (§1) In order to evaluate the acute toxicity of a single high dose administration of Coenzyme Q10, male and female rats of Wistar strain and male and female mice of ICR-JCL strain were used, and oral, intramuscular, subcutaneous, and intravenous administrations were studied. For the oral administration of Coenzyme Q10, a gum Arabic suspension was used. For the intramuscular, subcutaneous and intravenous administrations, Coenzyme Q10 was used as a solution containing a nonionic surfactant, Nikkol HCO-60 . Nikkol HCO-60 is a trade mark of a non-ionic surfacent comprised of hydrogenated castor oil/polyoxyethylene-60 mole ether available from Nikko Chemicals, Co. Ltd., Japan.
(§2) Observation was carried out for 7 days by using six males and six females for each dose group.

[2] = test system: pancreas external secretion; test: Quantity of pancreatic juice secreted after pancreozymin in anesthetized rats; format: in vivo, rat (male Wistar)
Procedure: (§3) Male Wistar rats weighing 300-400 g were fasted for 14-20 hours and then anesthetized with 1 g/Kg of urethane. A stainless steel tube was inserted into the common bile duct at the opening to the duodenum and fixed thereto (pancreatic cannula) to take out pancreatic juice. The common bile duct was ligated at an upper portion and a polyethylene tube was inserted into the bile duct and fixed thereto to allow the bile to flow outward. The pylorus was ligated. The medicament was administered into a femoral vein through the polyethylene tube.
(§4) The quantity of the pancreatic juice was measured by using a calibrated silicone rubber tube fitted to the pancreatic duct cannula. The tube was changed every 10 minutes.
(§5) Coenzyme Q10 was solubilized in water with Nikkol HCO-60 before use. An aqueous solution of Nikkol HCO-60 was used as placebo.
(§6) Coenzyme Q10 (3 mg/100 g body weight) and the placebo were administered to the rats through the femoral vein. After 60 minutes, pancreozymin (0.2 Crick, Harper and Raper unit/100 g body weight) was administered through the femoral vein.
(§7) FIGS. 1 and 2 show the quantities of pancreatic juice secreted when placebo was administered and when Coenzyme Q10 was administered, respectively. In FIGS. 1 and 2, the ordinates represent the quantity of the pancreatic juice secreted (μl/min./100 g body weight) and the abscissae represent time (min.). FIGS. 3 and 4 show the quantities of amylase secreted when placebo was administered and when Coenzyme Q10 was administered, respectively. In FIGS. 3 and 4, the ordinates represent quantity of amylase secreted (unit/min./100 g body weight) and the abscissae represent time (min.). In FIGS. 1-4, the values are average values ± standard deviation. The arrows in the figures indicate the times when Coenzyme Q10, placebo and pancreozymin were administered.

[3] = test system: rats of Wistar strain; test: Subacute oral toxicity test in rats (5 weeks); format: in vivo, rat (Wistar strain)
Procedure: (§8) Coenzyme Q10 was compulsorily and orally administered every day for 5 weeks to each group consisting of 10 male rats and 10 female rats of Wistar strain. The dose was 40, 200, and 1000 mg/Kg/day, respectively. Coenzyme Q10 was used in the form of gum Arabic suspension, while the solution containing gum Arabic alone was used as the control group. Collection of blood and urine samples and autopsies were carried out 5 weeks after the initiation of administration.

[4] = test system: rats of Wistar strain; test: Chronic oral toxicity test in rats (26 weeks); format: in vivo, rat (Wistar strain)
Procedure: Coenzyme Q10 was compulsorily and orally administered to each group consisting of 10 male rats and 10 female rats of Wistar strain for consecutive 26 weeks in a ratio of 6 days a week. The dose was 6, 60 and 600 mg/Kg/day, respectively. Coenzyme Q10 was used in the form of gum Arabic suspension, whereas the solution containing gum Arabic alone is used as the control group. Collection of blood and urine samples and autopsies were carried out 26 weeks after the administration.

[5] = test system: amylase of the pancreatic juice; test: Quantity of amylase secreted in pancreatic juice after pancreozymin in anesthetized rats; format: in vivo, rat (male Wistar)
Procedure: as §3, §4
Amylase activity of the pancreatic juice was determined by Kanno's method [Journal of Physiology (London) Vol. 245, P. 599 (1975)]. One amylase unit indicates a unit of amylase activity producing 1 mg of maltose by incubation of 37° C for 5 minutes.
as §5, §6, §7

[6] = Overall conclusion of acute, subacute, chronic toxicity and teratogenesis tests; format: in vivo; conditions: conclusion from all toxicity tests
From the text: as §1, §2, §8
Coenzyme Q10 was compulsorily and orally administered every day for 23 days to each group consisting of six male rabbits and five female rabbits. […]

[7] = test system: mice; test: Teratogenesis test in mice; format: in vivo, mouse; conditions: mice, 6, 60, 600 mg/Kg/day
[8] = test system: rats; test: Teratogenesis test in rats; format: in vivo, rat; conditions: rats, 6, 60, 600 mg/Kg/day
[9] = test system: rats of Wistar strain; test: Acute toxicity test in rats (single high dose); format: in vivo, rat (Wistar strain)
From the text: as §1, §2

[10] = Solubility of Coenzyme Q10 (properties); format: physicochemical
From the text: Coenzymes Q used in the present invention, for example, Coenzyme Q10 (the compound in which n = 10 in the above formula), can be mainly obtained synthetically, although it is possible to extract Coenzyme Q from animal organs. The physical and chemical properties of Coenzyme Q10 produced synthetically are as follows.

[11] = test system: rabbits; test: Subacute oral toxicity test in rabbits (23 days); format: in vivo, rabbit
Procedure: Coenzyme Q10 was compulsorily and orally administered every day for 23 days to each group consisting of six male rabbits and five female rabbits. The dose was 6, 60 and 600 mg/Kg/day, respectively. Coenzyme Q10 was used in the form of gum Arabic suspension, whereas the solution containing gum Arabic alone was used as the control group, On the 24th day, blood samples were collected from all the animals, and three males and two females from each group were then selectively autopsied.

[12] = any administration group, 7 days
[13] = intramuscular, Nikkol HCO-60 solution, single dose, 7 days
[14] = intravenous, Nikkol HCO-60 solution, single dose, 7 days
[15] = maximum dose in each administration route
[16] = oral, gum Arabic suspension, single dose, 7 days observation
[17] = relative to maximum doses of Table 1
[18] = subcutaneous, Nikkol HCO-60 solution, single dose, 7 days
[19] = 3 mg/100 g femoral vein, after pancreozymin
[20] = 10 minutes after pancreozymin, Coenzyme Q10 3 mg/100 g i.v. (femoral vein) 60 minutes before
[21] = 40, 200, 1000 mg/Kg/day oral, 5 weeks
[22] = 6, 60, 600 mg/Kg/day oral, 26 weeks
[23] = spontaneous pneumonia and aspiration pneumonia due to erroneous administration, dose group not stated
[24] = 6, 60, 600 mg/Kg/day oral, 23 days

Compound: COC1=C(OC)C(=O)C(C/C=C(\C)CC/C=C(\C)CC/C=C(\C)CC/C=C(\C)CC/C=C(\C)CC/C=C(\C)CC/C=C(\C)CC/C=C(\C)CC/C=C(\C)CCC=C(C)C)=C(C)C1=O [Coenzyme Q10]
- acute toxicity (conclusion) [1]: extremely low
- general condition, body weight, food intake, autopsy findings [1, 12]: no change was recognized
- Maximum dose (no case of deaths), intramuscular [1, 13]: 500 mg/kg
- Maximum dose (no case of deaths), intravenous [1, 14]: 250 mg/kg
- deaths [1, 15]: no case of deaths
- Maximum dose (no case of deaths), oral [1, 16]: 4000 mg/kg
- LD50 [1, 17]: far higher than the maximum dose mentioned above
- Maximum dose (no case of deaths), subcutaneous [1, 18]: 500 mg/kg
- fourth response, quantity of pancreatic juice, P versus placebo [2, 19]: < 0.05
- quantity of pancreatic juice secreted, comparison with placebo group [2, 19]: significantly superior
- second response, quantity of pancreatic juice, P versus placebo [2, 19]: < 0.02
- third response, quantity of pancreatic juice, P versus placebo [2, 19]: < 0.02
- first response, quantity of pancreatic juice secreted, ratio to placebo group [2, 20]: about 1.5 times
- general condition and body weight versus control group [3, 21]: no difference
- hematological test and biochemical test of blood and urine [3, 21]: No significant change was recognized
- weight of each organ [3, 21]: no significant change
- macroscopical and histological observation ([3]; hematoxylin-eosine staining and liver fat staining, 5 weeks): abnormality was not recognized
- toxicity (conclusion) ([3]; oral, 5 weeks): there was not recognized the toxicity seemingly due to the administration
- dead animals during the experiment ([3]; spontaneous pneumonia and aspiration pneumonia due to error of administration, dose group not stated): four
- body weight [4, 22]: increased the same as that of the control group
- general condition versus control group [4, 22]: no difference
- weights of organs ([4]; 26 weeks): no significant increase and decrease
- leukocytal percentages ([4]; hematological findings, 26 weeks): some increase and decrease, but do not provide the mutual relation depending upon the dose; the percentages being within the range of physiological fluctuations
- macroscopical and histological observation ([4]; hematoxylin-eosine staining and liver fat staining, versus control group): abnormalities were not recognized
- toxicity (conclusion) ([4]; oral, 26 weeks): no toxicity was observed
- deaths, females [4, 23]: three
- deaths, males [4, 23]: 11 males
- biochemical tests of blood and urine ([4]; versus control group, 26 weeks): No significant changes were recognized
- second through fourth responses, quantity of amylase, P versus placebo ([5]; 3 mg/100 g femoral vein, after pancreozymin, all cases): higher than 0.05
- first response, quantity of amylase secreted, ratio to placebo group [5, 20]: about 1.6 times
- quantity of amylase secreted, comparison with placebo group ([5]; second through fourth responses, 3 mg/100 g femoral vein, after pancreozymin): significantly superior
- overall safety [6]: a very safe drug, without side-effects
- adverse effects in mothers, fetuses and newborns [7]: no adverse effects were noted
- adverse effects in mothers, fetuses and newborns [8]: no adverse effects were noted
- acute toxicity (conclusion) [9]: extremely low
- general condition, body weight, food intake, autopsy findings [9, 12]: no change was recognized
- Maximum dose (no case of deaths), intramuscular [9, 13]: 500 mg/kg
- Maximum dose (no case of deaths), intravenous [9, 14]: 250 mg/kg
- deaths [9, 15]: no case of deaths
- Maximum dose (no case of deaths), oral [9, 16]: 4000 mg/kg
- LD50 [9, 17]: far higher than the maximum dose mentioned above
- Maximum dose (no case of deaths), subcutaneous [9, 18]: 500 mg/kg
- solubility in acetone ([10]; acetone): soluble
- solubility in benzene ([10]; benzene): easily soluble
- solubility in carbon tetrachloride ([10]; carbon tetrachloride): easily soluble
- solubility in chloroform ([10]; chloroform): easily soluble
- solubility in ethanol ([10]; ethanol): insoluble
- solubility in ether ([10]; ether): soluble
- solubility in methanol ([10]; methanol): hardly soluble
- solubility in water ([10]; water): hardly soluble
- general condition and increase of body weight versus control group [11, 24]: no difference
- hematological test and biochemical test of blood [11, 24]: Abnormal findings were not obtained
- weight of each organ [11, 24]: no effect on the weight of each organ
- electron-microscopic observation of liver ([11]; 7th, 14th and 24th days): there were not recognized abnormal findings on the minute structure of the liver
- macroscopical and histological observation ([11]; hematoxylin-eosine staining and liver fat staining): abnormalities were not recognized
- toxicity (conclusion) ([11]; oral, 23 days): there were not recognized the findings wherein the toxicity of Coenzyme Q10 will be suggested
